As usually defined, the thermodynamic solubility is solubility found after equilibrating the solid with the medium. The term LD50 denotes the dose expected to kill half of the subjects tested.

Data set [1] in a line: Solubility of the sodium salt in water. The format is physicochemical. Here is the method: 2,4,6-Triiodo-5-methoxyacetamido-N-methylisophthalamic acid (6.005 g.) was dissolved in water with NaOH solution at pH 7.4 to form a supersaturated solution (7.0 ml.). When the solution was allowed to stand at room temperature overnight, crystallization occurred. The crystals were collected and dried.
The sodium salt (2.71 g.) was then dissolved in water to form an 82% w/v solution (3.3 ml.). After the solution was allowed to stand at 24° overnight some crystallization occurred. The solution was stirred and the supernatant was taken (by centrifugation) for specific gravity measurement (sp. gr. 1.43) and for water determination (found, […] by Karl Fischer method). The solubility of the sodium salt in water was therefore determined to be about 70% w/v at 24°.

The test system of data set [2] is rats. As to conditions: Priewe et al., DAS 1,129,260/1962; cited from earlier work.
Data set [3] has as its system dogs. As to conditions: Pfeiffer et al., DOS 2,118,219/1972; cited from earlier work.
In data set [4] the test system is man. The note with it: Pfeiffer et al., DOS 2,118,219/1972; cited from earlier work.
The test system of data set [5] is Swiss Albino mice (Charles River). Kind of data set: Acute Intravenous Toxicity Studies in Mice (LD50). The format is in vivo. The note with it: lateral tail vein, 1 ml/min, solutions containing 28.27% of iodine, seven day observation. Here is the method: (§1) The techniques utilized are outlined below.
I. Acute Intravenous Toxicity Studies in Mice
Swiss Albino mice (Charles River) were dosed in the lateral tail vein with solutions of the iodinated compound containing 28.27% of iodine, injected at the rate of 1 ml/min. […] The LD50 values were calculated by the method of Litchfield and Wilcoxon (J. of Pharmac. and Exptl. Therap. 96:99-113, 1949).

A short description of data set [6]: in vivo. As to conditions: mouse, intracerebral, fixed volumes of various concentrations, seven day observation, meglumine salt, read-out: LD50 of Meglumine Salt, Intracerebral (Mice).
From the text: as §1
II. Intracerebral Toxicity in Mice
Swiss Albino mice (Charles River) were used. […] The animals were observed immediately after injections and daily throughout a seven day observation period.

Data set [7] in a line: in vivo. The note with it: rat, intracisternal, two day observation, meglumine salt, read-out: LD50 of Meglumine Salt, Intracisternal (Rats).
From the text: as §1
III. Intracisternal Toxicity in Rats
Sprague Dawley (Carworth) rats were used. […] After dosing, the animals were housed individually, and observed for immediate reactions and periodically for a two day observation period.

Molecules are shown by their SMILES.

`CNC(=O)c1c(I)c(NC(=O)COC)c(I)c(C(=O)[O-])c1I.[Na+]`: the solubility (thermodynamic) in data set [1] (24°, sodium salt, from specific gravity and Karl Fischer water of supernatant) is ~700 mg/mL. In addition, in data set [1] (sodium salt in water), the “temperature dependence of solubility” value is listed as “highly temperature dependent”.

`COCC(=O)Nc1c(I)c(NC(C)=O)c(I)c(C(=O)O)c1I` [3-acetamido-5-methoxyacetamido-2,4,6-triiodobenzoic acid]: in data set [2], the “LD50 (i.v. in rats)” value is 16000 mg/kg. The “circulatory disturbances in dogs” value in data set [3] was “strong circulatory disturbances”. Besides, the “circulatory disturbances in man” value in data set [4] was “strong circulatory disturbances”.

As for `CNC(=O)c1c(I)c(NC(C)=O)c(I)c(C(=O)O)c1I` [Iothalamic Acid, 5-acetamido-2,4,6-triiodo-N-methylisophthalamic acid, reference compound], in data set [5], the “LD50 of Meglumine Salt, I.V. (Mice)” value was 5742 mg. contained iodine/kg. anima.

`CNC(=O)c1c(I)c(NC(=O)COC)c(I)c(C(=O)O)c1I` [meglumine 2,4,6-triiodo-5-methoxyacetamido-N-methylisophthalamate]: the LD50 at 168 h in data set [6] worked out at 700 mg/kg. Besides, the LD50 at 48 h in data set [7] stood at 40 mg/kg. Besides, in data set [5], the “LD50 of Meglumine Salt, I.V. (Mice)” value is on record as 6700 mg. contained iodine/kg. anima.
